Measured values: patent US20250009696A1, “METHODS OF CANCER TREATMENT VIA REGULATED FERROPTOSIS” (Memorial Sloan Kettering Cancer Center, priority 2017, published 2025)

Experiments:
[1] = Computational analysis of cell death spreading (time-lapse microscopy, random trials); format: cell-based; details: experimentally-induced apoptosis; cell line not stated
Protocol: Nuclei are circled and color-coded to represent the relative timing of cell death, determined by time-lapse microscopy. The relative positioning of cell deaths occurring in successive frames of a time-lapse movie are calculated by measuring the distance between newly occurring deaths and their nearest neighbor of any previous deaths, for example death 2 to death 1, or distance a. The mean distance of all deaths in a movie is calculated as distances (a+b+c+ . . . +n)/n.
It was observed that ferroptosis involves the spreading of cell death between adjacent cells in cell culture in wave-like or synchronous patterns. […] To study cell death spreading, a computational analysis was designed that allows for quantification of the random or non-random nature of observed patterns of cell death in a population. As shown in FIGS. 2A-2D, this analysis utilizes time-lapse microscopic imaging of cell death, for cells cultured in the presence of Sytox green or Sytox orange dyes (or propidium iodide), which enter the nucleus of necrotic cells and emit green or red fluorescence (FIG. 2A). […] In addition to the actual data set calculated for each field of view, randomized trials are then also performed 1000 times for each microscopic field, to generate a random set of possible mean distances that account for the particular arrangements of cells in each field (FIG. 2B). […]

[2] = test system: LNCAP prostate cancer cells; experiment: Western blot of PSMA and AR expression after enzalutamide exposure in vitro; format: cell-based; details: 10 μM continuously for 15 days
From the text: At the conclusion of exposure, cells were collected and the expression levels of PSMA and AR were examined via Western blot.

LNCAP xenografts = experiment: PSMA expression in xenografts after daily enzalutamide; format: in vivo, mice; details: 10 mg/kg/day, oral gavage
[3] = test system: LNCAP-AR prostate cancer cells; experiment: Western blot of PSMA and AR expression after enzalutamide exposure in vitro; format: cell-based; details: 10 μM over 15 days
[4] = test system: PC-3 prostate cancer cells; experiment: as above; format: cell-based; details: 10 μM for 15 days
HT1080 cells = experiment: Cell rupture in response to other inducers of ferroptosis with osmoprotectants; format: cell-based; details: necrotic cell death induced by hydrogen peroxide, FIG. 1F
From the text: (§1) The use of osmo-protectants (FIG. 1B) of increasing sizes can indicate the presence of pores in the membrane that would be required for cell rupture.

[5] = test system: cells treated with FAC and BSO; experiment: Spreading of ferroptosis, cell rounding and calcium signal with inhibitors or osmoprotectants; format: cell-based
Protocol: FIG. 3A depicts images that show cell colony prior to (left) and 12 hours after (right) treatment with liproxstatin-1. Note cell death involving wave-like spreading that was induced by FAC and BSO, and started prior to liproxstatin-1 addition, was inhibited, as cells that were alive (bottom right half of colony) stayed alive for 12 hours.
Right images show computational quantifications of the spreading of cell rounding (top), which remains significant in the presence of PEG1450 (***P=0.004) (see histogram, bottom). Cells are pseudocolored in top image to represent the relative timing of cell rounding.
Relative times are shown as minutes (min).
It was observed that ferroptosis involves a pore-forming activity and, also, a spreading activity. […] As cell rounding or swelling may be associated with calcium influx into cells, cells expressing the genetically-encoded calcium sensor GCaMP, which emits GFP fluorescence upon calcium exposure, were treated with FAC and BSO to induce ferroptosis in the presence of PEG3350.

[6] = test system: cells treated with FAC and BSO; experiment: Cell swelling and cell lysis (LDH release) in FAC and BSO-induced ferroptosis; format: cell-based; details: for cell lysis / cell rupture (release of lactate dehydrogenase, LDH): 48 hours of treatment with FAC and BSO (400 μM), osmoprotectant 30 mM
Protocol: The effect on cell lysis is shown by reduced release of lactate dehydrogenase (LDH), a measure of necrosis.
To investigate if the ferroptotic rupture of cells might be an event that is regulated by a pore, experiments were performed with osmo-protectants in the cell culture medium. Osmo-protectants are large osmolytes that when added to sufficient concentrations outside of cells (30 mM), buffer potential ion imbalances caused by pore formation that would otherwise lead to membrane rupture. The loss of ion and small molecule balances across the plasma membrane due to the opening of a pore would lead to hypo-osmotic stress due to the large molecules and organelles that cannot cross the intact membrane.
as §1

Compound: C[C@@H]1C[C@@H]([C@H](O)CC2CC(=O)NC(=O)C2)C(=O)[C@@H](C)C1 [cyclohexamide]
- observed mean distance between cell deaths versus random trials [1]: falls within the random trials

Compound: CNC(=O)c1ccc(N2C(=S)N(c3ccc(C#N)c(C(F)(F)F)c3)C(=O)C2(C)C)cc1F [enzalutamide]
- AR expression (Western blot) [2]: transient increase in AR expression is also observed from Day 7 to Day 10
- PSMA expression (Western blot) [2]: increase in PSMA expression occurs on, or around, Day 7 of exposure
- PSMA expression in LNCAP xenografts (LNCAP xenografts): increase in PSMA expression at Day 5
- PSMA expression in tumor sections (immunofluorescence staining) (LNCAP xenografts): increase in PSMA expression at Day 5
- AR expression (Western blot) [3]: clear increase in AR expression is observed from Day 3 onward
- PSMA expression (Western blot) [3]: time-dependent increase in PSMA expression
- AR expression (Western blot) [4]: negative for AR across all tested time points
- PSMA expression (Western blot) [4]: lack of PSMA expression at all time points

Compound: OO [hydrogen peroxide]
- regulation of necrotic cell death by PEG1450 or PEG3350 (HT1080 cells): did not involve similar regulation

Compound: Clc1cccc(CN=C2Nc3ccccc3NC23CCNCC3)c1 [liproxstatin-1]
- spreading of cell rounding / morphological changes ([5]; FAC and BSO (400 μM) in the presence of the named agent): blocked
- wave-like spreading of ferroptosis ([5]; FAC and BSO, agent added after initiation of ferroptosis): disrupted wave-like spreading

Compound: COc1nccnc1NS(=O)(=O)c1ccc(NC(=O)/C=C/c2ccc([N+](=O)[O-])s2)cc1 [necrosulfonamide]
- ferroptotic cell rupture ([6]; treatment with inhibitor of MLKL): did not affect ferroptotic cell rupture

Compound: OC[C@H]1O[C@H](OC[C@H]2O[C@H](O[C@]3(CO)O[C@H](CO)[C@@H](O)[C@@H]3O)[C@H](O)[C@@H](O)[C@@H]2O)[C@H](O)[C@@H](O)[C@H]1O [raffinose]
- cell lysis / cell rupture (release of lactate dehydrogenase, LDH) [6]: did not

Compound: OC[C@H]1O[C@@](CO)(O[C@H]2O[C@H](CO)[C@@H](O)[C@H](O)[C@H]2O)[C@@H](O)[C@@H]1O [sucrose]
- cell lysis / cell rupture (release of lactate dehydrogenase, LDH) [6]: did not
